SMILES strings stand for the structures.

T1 sequence (P13569 with tags, fused parts or gaps DEL508-508): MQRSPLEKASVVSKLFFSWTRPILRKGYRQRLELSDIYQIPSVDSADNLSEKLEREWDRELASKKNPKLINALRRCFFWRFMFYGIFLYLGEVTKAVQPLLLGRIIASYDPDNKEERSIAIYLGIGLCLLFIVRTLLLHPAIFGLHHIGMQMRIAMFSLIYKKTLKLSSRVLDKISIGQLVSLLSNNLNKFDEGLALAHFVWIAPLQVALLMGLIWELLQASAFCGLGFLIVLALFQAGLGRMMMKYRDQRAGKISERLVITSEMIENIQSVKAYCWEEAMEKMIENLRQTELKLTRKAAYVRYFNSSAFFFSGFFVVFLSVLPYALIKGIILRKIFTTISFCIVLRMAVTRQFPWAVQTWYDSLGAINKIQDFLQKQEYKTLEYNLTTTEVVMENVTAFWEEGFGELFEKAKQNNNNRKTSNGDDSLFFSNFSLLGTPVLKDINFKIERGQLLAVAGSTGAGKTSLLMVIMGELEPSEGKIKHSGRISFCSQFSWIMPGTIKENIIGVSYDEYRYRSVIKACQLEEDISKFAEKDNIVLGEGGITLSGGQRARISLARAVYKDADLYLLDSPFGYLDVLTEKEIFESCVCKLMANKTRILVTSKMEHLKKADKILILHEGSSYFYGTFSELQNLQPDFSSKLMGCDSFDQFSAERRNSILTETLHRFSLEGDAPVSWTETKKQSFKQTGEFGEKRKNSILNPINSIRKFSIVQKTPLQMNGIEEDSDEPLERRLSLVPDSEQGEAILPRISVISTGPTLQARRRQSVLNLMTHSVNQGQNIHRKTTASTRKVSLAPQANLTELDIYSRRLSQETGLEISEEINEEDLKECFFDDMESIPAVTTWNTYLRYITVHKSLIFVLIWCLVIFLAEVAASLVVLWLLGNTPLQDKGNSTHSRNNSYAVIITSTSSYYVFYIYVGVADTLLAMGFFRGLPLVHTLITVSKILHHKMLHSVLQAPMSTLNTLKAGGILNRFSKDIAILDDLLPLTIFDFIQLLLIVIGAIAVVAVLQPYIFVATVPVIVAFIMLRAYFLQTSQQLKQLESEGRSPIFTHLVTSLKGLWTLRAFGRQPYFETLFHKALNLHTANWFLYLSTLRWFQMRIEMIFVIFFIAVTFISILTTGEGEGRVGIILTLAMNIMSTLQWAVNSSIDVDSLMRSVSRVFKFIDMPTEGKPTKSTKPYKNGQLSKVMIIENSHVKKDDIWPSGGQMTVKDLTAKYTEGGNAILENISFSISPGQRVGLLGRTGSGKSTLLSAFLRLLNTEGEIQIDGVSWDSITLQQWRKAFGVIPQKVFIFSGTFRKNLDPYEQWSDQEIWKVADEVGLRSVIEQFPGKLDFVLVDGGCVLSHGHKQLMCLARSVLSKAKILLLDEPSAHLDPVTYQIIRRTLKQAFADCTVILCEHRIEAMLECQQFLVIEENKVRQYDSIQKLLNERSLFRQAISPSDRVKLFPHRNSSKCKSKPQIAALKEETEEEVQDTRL

One experiment has as its target T1, F508del (Homo sapiens, UniProt P13569, DEL508-508).
T1 construct: expressed in transfected cells
The experiment is described as follows: Protocol 2: FRET membrane potential optical assay (VIPR), identification of correction compounds. Format: cell-based. The note with it: F508del CFTR modulator activity; compounds of Table 1; read-out: EC30. The method in brief: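 NIH3T3 mouse fibroblasts stably expressing F508del-CFTR incubated with compound 16 h at 37 °C in serum-free medium, then loaded with CC2-DMPE/DiSBAC2(3) FRET dyes. Channel activated with 10 μM forskolin plus 20 μM genistein in Cl⁻-free (gluconate) bath; depolarisation from Cl⁻ efflux read on VIPR II.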
Take `CC1CN(c2ncccc2C(=O)NS(=O)(=O)c2cccc(NCc3cccc(C(F)(F)F)n3)n2)C(C)(C)C1` (centres unmarked) [Compound 2365, N—[[6-[[6-(trifluoromethyl)-2-pyridyl]methylamino]-2-pyridyl]sulfonyl]-2-(2,2,4-trimethylpyrrolidin-1-yl)pyridine-3-carboxamide]: the EC30 is below 3000 nM. `CCOC(=O)c1cccc(Nc2cccc(S(=O)(=O)NC(=O)c3cccnc3N3CC(C)CC3(C)C)n2)c1` (centres unmarked) [Compound 2060, ethyl 3-[[6-[[2-(2,2,4-trimethylpyrrolidin-1-yl)pyridine-3-carbonyl]sulfamoyl]-2-pyridyl]amino]benzoate]: the EC30 is below 3000 nM.

Take `CC1CN(c2ncccc2C(=O)NS(=O)(=O)c2cccc(OC3CCC4CCCCC4C3)n2)C(C)(C)C1` (centres unmarked) [Compound 2211, N-[(6-decalin-2-yloxy-2-pyridyl)sulfonyl]-2-(2,2,4-trimethylpyrrolidin-1-yl)pyridine-3-carboxamide]: the EC30 was below 3000 nM. On the same count and under the same terms, in the case of `CC1CN(c2ncccc2C(=O)NS(=O)(=O)c2cccc(Nc3cnc4ccccc4c3)n2)C(C)(C)C1` (centres unmarked) [Compound 2449, N—[[6-(3-quinolylamino)-2-pyridyl]sulfonyl]-2-(2,2,4-trimethylpyrrolidin-1-yl)pyridine-3-carboxamide] it was below 3000 nM; in that of `CC(C)c1cccc(-c2ccc(C(=O)NS(=O)(=O)c3ccc[nH]c3=O)c(N3C[C@@H](C)CC3(C)C)n2)c1` [Compound 2498, 6-(3-isopropylphenyl)-N-[(2-oxo-1H-pyridin-3-yl)sulfonyl]-2-[(4S)-2,2,4-trimethylpyrrolidin-1-yl]pyridine-3-carboxamide], below 3000 nM; in that of `COc1ccccc1Oc1cccc(S(=O)(=O)NC(=O)c2cccnc2N2CC(C)CC2(C)C)n1` (centres unmarked) [Compound 2637, N—[[6-(2-methoxyphenoxy)-2-pyridyl]sulfonyl]-2-(2,2,4-trimethylpyrrolidin-1-yl)pyridine-3-carboxamide], below 3000 nM. Same read-out and setting: in the case of `Cc1cc(-c2ccc(C(=O)NS(=O)(=O)c3cccc(N)n3)c(N3C[C@@H](C)CC3(C)C)n2)ccc1OC(F)F` [Compound 2543, N-[(6-amino-2-pyridyl)sulfonyl]-6-[4-(difluoromethoxy)-3-methyl-phenyl]-2-[(4S)-2,2,4-trimethylpyrrolidin-1-yl]pyridine-3-carboxamide] it was below 3000 nM. On the same count and under the same terms, the same measure for `CC1CN(c2ncccc2C(=O)NS(=O)(=O)c2cccc(NC3CC3)n2)C(C)(C)C1` (centres unmarked) [Compound 2574, N—[[6-(cyclopropylamino)-2-pyridyl]sulfonyl]-2-(2,2,4-trimethylpyrrolidin-1-yl)pyridine-3-carboxamide]: 3000 to 10000 nM; for `CC1CN(c2ncccc2C(=O)NS(=O)(=O)c2cccc(OC3CC4CCC3(C)C4(C)C)n2)C(C)(C)C1` (centres unmarked) [Compound 2059, N—[[6-(1,7,7-trimethylnorbornan-2-yl)oxy-2-pyridyl]sulfonyl]-2-(2,2,4-trimethylpyrrolidin-1-yl)pyridine-3-carboxamide]: below 3000 nM; for `CC1CN(c2ncccc2C(=O)NS(=O)(=O)c2cccc(OCc3cnn(-c4ccccc4)c3)n2)C(C)(C)C1` (centres unmarked) [Compound 2111, N—[[6-[(1-phenylpyrazol-4-yl)methoxy]-2-pyridyl]sulfonyl]-2-(2,2,4-trimethylpyrrolidin-1-yl)pyridine-3-carboxamide]: below 3000 nM.

On to `CC1CN(c2ncccc2C(=O)NS(=O)(=O)c2cccc(N3CCN(c4ccccc4)CC3)n2)C(C)(C)C1` (centres unmarked) [Compound 2208, N—[[6-(4-phenylpiperazin-1-yl)-2-pyridyl]sulfonyl]-2-(2,2,4-trimethylpyrrolidin-1-yl)pyridine-3-carboxamide], for which the EC30 is below 3000 nM. The same measure, in the same setting: the same measure for `C[C@@H]1CN(c2nc(-c3cccc(CO)c3)ccc2C(=O)NS(=O)(=O)c2ccc[nH]c2=O)C(C)(C)C1` [Compound 1997, 6-[3-(hydroxymethyl)phenyl]-N-[(2-oxo-1H-pyridin-3-yl)sulfonyl]-2-[(4S)-2,2,4-trimethylpyrrolidin-1-yl]pyridine-3-carboxamide]: 3000 to 10000 nM.

Regarding `CC1CN(c2ncccc2C(=O)NS(=O)(=O)c2cccc(NCC3CCCO3)n2)C(C)(C)C1` (centres unmarked) [Compound 2131, N—[[6-(tetrahydrofuran-2-ylmethylamino)-2-pyridyl]sulfonyl]-2-(2,2,4-trimethylpyrrolidin-1-yl)pyridine-3-carboxamide], the EC30 was above 10000 nM.

On to `CC1CN(c2ncccc2C(=O)NS(=O)(=O)c2cccc(Nc3cccc(N(C)C)c3)n2)C(C)(C)C1` (centres unmarked) [Compound 2517, N—[[6-[3-(dimethylamino)anilino]-2-pyridyl]sulfonyl]-2-(2,2,4-trimethylpyrrolidin-1-yl)pyridine-3-carboxamide], for which the EC30 was below 3000 nM. Same read-out and setting: in the case of `Cc1ccc(Oc2cccc(S(=O)(=O)NC(=O)c3cccnc3N3CC(C)CC3(C)C)n2)cc1` (centres unmarked) [Compound 2460, N—[[6-(4-methylphenoxy)-2-pyridyl]sulfonyl]-2-(2,2,4-trimethylpyrrolidin-1-yl)pyridine-3-carboxamide] it was below 3000 nM.

The experiment is the same for the next values; noted with them: Table 3; compounds of Table 1 as modulators of CFTR activity; protocol not stated.
Regarding `CCC(C)(C)C1CCCN1c1nc(-c2cc(F)cc(OCC(C)C)c2)ccc1C(=O)NS(=O)(=O)c1cccc(N)n1` (centres unmarked) [Compound 493, N-[(6-amino-2-pyridyl)sulfonyl]-2-[2-(1,1-dimethylpropyl)pyrrolidin-1-yl]-6-(3-fluoro-5-isobutoxy-phenyl)pyridine-3-carboxamide], the EC30 result is listed as “+++ (“+++” means <3 uM)”.

Turning to `Cc1cccc(C)c1Oc1nc(-c2cc(F)cc(OCC(C)C)c2)ccc1C(=O)NS(=O)(=O)c1cccc(N)n1` [Compound 639, N-[(6-amino-2-pyridyl)sulfonyl]-2-(2,6-dimethylphenoxy)-6-(3-fluoro-5-isobutoxy-phenyl)pyridine-3-carboxamide], the EC30 entry was “+++ (“+++” means <3 uM)”. Same read-out and setting: in the case of `Cc1cc(C)c(CN2Cc3ccccc3C2C(=O)NS(=O)(=O)c2ccccc2N)c(C)c1` (centres unmarked) [Compound 230, N-(2-aminophenyl)sulfonyl-2-[(2,4,6-trimethylphenyl)methyl]isoindoline-1-carboxamide] it was “++ (“++” means between 3 uM and 10 uM)”; in that of `Cc1cc(C)c(Oc2nc(C(C)(C)C)ccc2C(=O)NS(=O)(=O)c2ccncc2)c(C)c1` [Compound 117, 6-tert-butyl-N-(4-pyridylsulfonyl)-2-(2,4,6-trimethylphenoxy)pyridine-3-carboxamide], “+++ (“+++” means <3 uM)”; in that of `COc1cccc2c1cc(C(=O)NS(=O)(=O)c1ccccc1)n2Cc1c(C)cc(C)cc1C` [Compound 348, N-(benzenesulfonyl)-4-methoxy-1-[(2,4,6-trimethylphenyl)methyl]indole-2-carboxamide], “+++ (“+++” means <3 uM)”. The same measure, in the same setting: the same measure for `Cc1cccc(C)c1Cn1nc(-c2ccccc2OC(C)C)cc1C(=O)NS(=O)(=O)c1ccccc1` [Compound 277, N-(benzenesulfonyl)-2-[(2,6-dimethylphenyl)methyl]-5-(2-isopropoxyphenyl)pyrazole-3-carboxamide]: “+++ (“+++” means <3 uM)”; for `CC(C)(C)c1ccc(C(=O)NS(=O)(=O)c2cccc(N)n2)c(OC2CCCCC2)n1` [Compound 649, N-[(6-amino-2-pyridyl)sulfonyl]-6-tert-butyl-2-(cyclohexoxy)pyridine-3-carboxamide]: “++ (“++” means between 3 uM and 10 uM)”; for `CC(C)Oc1ccc(-c2ccc(C(=O)NS(=O)(=O)c3ccn[nH]3)c(N3C[C@H](C)C[C@H](C)C3)n2)cn1` [Compound 446, 2-[(3R,5S)-3,5-dimethyl-1-piperidyl]-6-(6-isopropoxy-3-pyridyl)-N-(1H-pyrazol-5-ylsulfonyl)pyridine-3-carboxamide]: “+++ (“+++” means <3 uM)”. On the same count and under the same terms, the same measure for `Cc1cc(C)c(Oc2nc(-c3ccc(Cl)c(OCC(C)C)c3)ccc2C(=O)NS(=O)(=O)c2cccc(N)n2)c(C)c1` [Compound 238, N-[(6-amino-2-pyridyl)sulfonyl]-6-(4-chloro-3-isobutoxy-phenyl)-2-(2,4,6-trimethylphenoxy)pyridine-3-carboxamide]: “+++ (“+++” means <3 uM)”. Take `Cc1cc(C)c(Oc2nc(-c3cnc(N4CCCCC4)nc3)ccc2C(=O)NS(=O)(=O)c2cccc(N)n2)c(C)c1` [Compound 475, N-[(6-amino-2-pyridyl)sulfonyl]-6-[12-(1-piperidyl)pyrimidin-5-yl]-2-(2,4,6-trimethylphenoxy)pyridine-3-carboxamide]: the EC30 entry is “+++ (“+++” means <3 uM)”.

Take `Cc1cc(C)c(Oc2nc(C(C)(C)C)ccc2C(=O)NS(=O)(=O)c2cccc(N(C)C)c2)c(C)c1` [Compound 311, 6-tert-butyl-N-[3-(dimethylamino)phenyl]sulfonyl-2-(2,4,6-trimethylphenoxy)pyridine-3-carboxamide]: the EC30 entry is given as “+++ (“+++” means <3 uM)”. Same read-out and setting: in the case of `Cc1cc(C)c(CN2CCCc3ccccc3C2C(=O)NS(=O)(=O)c2cccc(N)n2)c(C)c1` (centres unmarked) [Compound 696, N-[(6-amino-2-pyridyl)sulfonyl]-2-[(2,4,6-trimethylphenyl)methyl]-1,3,4,5-tetrahydro-2-benzazepine-1-carboxamide] it was “+++ (“+++” means <3 uM)”; in that of `CC1CN(c2nc(-c3cncc(OCC(C)(C)C)n3)ccc2C(=O)NS(=O)(=O)c2cccc(N)n2)C(C)(C)C1` (centres unmarked) [Compound 779, N-[(6-amino-2-pyridyl)sulfonyl]-6-[6-(2,2-dimethylpropoxy)pyrazin-2-yl]-2-(2,2,4-trimethylpyrrolidin-1-yl)pyridine-3-carboxamide], “+++ (“+++” means <3 uM)”; in that of `CC(C)COc1ccc(F)c(-c2ccc(C(=O)NS(=O)(=O)c3ccc[nH]c3=O)c(N3[C@H](C)CC[C@@H]3C)n2)c1` [Compound 721, 2-[(2S,5R)-2,5-dimethylpyrrolidin-1-yl]-6-(2-fluoro-5-isobutoxy-phenyl)-N-[(2-oxo-1H-pyridin-3-yl)sulfonyl]pyridine-3-carboxamide], “++ (“++” means between 3 uM and 10 uM)”.

In general, EC30 refers to the concentration needed for an effect of 30%.

Source of the values: US10758534B2 (Vertex Pharmaceuticals Incorporated, priority 2014, dated 2020).
